In patent publication US20040034879A1, “Mammalian sex selection using genetic modification” (priority 2000, published 2004):

Legend:
[1] = system: sperm comprising an X chromosome; test: Sex of offspring sired by male mice carrying TP1-HSV tk (transgene (a)) on the X chromosome; format: in vivo, mouse; details: after two weeks of gancyclovir administration, crossed with non-transgenic female mice
Method: The mice transformed with transgene (a), as described above, express HSV tk on the X chromosome of maturing sperm. Gancyclovir. from about 5 to about 15 mg/kg body weight, is administered to transgenic mice expressing HSV tk via injection. Upon gancyclovir administration, HSV tk forms toxic metabolites that leads to the ablation of sperm comprising an X chromosome. The TP1 regulatory region is activated post-meiotically, so that Y bearing sperm are not effected. Thus, the transformed male mouse comprises exclusively Y bearing sperm and produces male offspring, upon gancyclovir administration. An exemplary gancyclovir administration regime comprises two weeks of administration prior to mating, thereby destroying X chromosome-bearing sperm prior to mating. Male mice carrying transgene HSV tk (transgene (a)) are crossed non-transgenic female mice. Without gancyclovir administration, half of the offspring are male and half are female. The female offspring carry the transgene on the X chromosome. After two weeks of gancyclovir administration, male mice carrying transgene (a) are crossed with non-transgenic female mice. The resulting offspring are all male.

[2] = system: Human 293 cells; test: Luciferase activity after transient co-transfection with pCMV-Luc; format: cell-based; details: 48 hours after co-transfection with pBS-CMV-tTA-Barnase-Barstar and pCMV-Luc; tetracycline pretreatment, 2 μg/ml
Method: Cell culture and transient transfection: Human 293 cells from embryonal kidney were maintained at 37° C., 5% CO2 in α-MEM supplemented with 10% fetal bovine serum. Transfections by calcium phosphate co-precipitation were performed according to standard protocols. Transfections were carried out in 35 mm dishes, using 1 μg of plasmid together with 0.5 μg of pCMV-Luc or pCMV-GFP. Control trasfections contained 1 μg of empty pTRE plasmid DNA together with 0.5 μg of either pCMV-Luc or pCMV-GFP. Tetracycline was used at a concentration of 2 μg/ml, and added shortly after cells were transfected, unless otherwise indicated. All data were from three replicate plates and the experiments were repeated twice.
Luciferase activity: Twenty-four hours following transfection, media was removed, cells were washed with PBS and luciferase assays were performed as described in Yin et al (1996) with Promega luciferase assay system, using 10 μl lysate and 50 μl luciferase substrate. Activity was measured with a Turner TD-20e luminometer. Protein concentrations in different lysates were determined by Bradford assays (Bio-Rad), and luciferase activity per μg protein determined.

| Structure (SMILES) | sex of the resulting offspring [1] | luciferase activity in cells treated with tetracycline versus those not treated [2] |
| --- | --- | --- |
| Nc1nc(O)c2ncn(COC(CO)CO)c2n1 [gancyclovir] | all male |  |
| CN(C)[C@@H]1C(O)=C(C(N)=O)C(=O)[C@@]2(O)C(O)=C3C(=O)c4c(O)cccc4[C@@](C)(O)[C@H]3C[C@@H]12 [tetracycline] |  | ~6 fold |
